The source of these data is PubChem BioAssay (NCI).

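Compound exposure: 48 hours, 5 concentrations, 96-well plates. Here, GI50 denotes the concentration required for 50% inhibition of growth. TGI marks complete inhibition of growth.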

Among the test systems are NCI/ADR-RES ovarian; PC-3 prostate; MDA-MB-231 breast; SR leukemia; T-47D breast; M14 melanoma; BT-549 breast; KM20L2 colon; 786-0 renal; MDA-N; DMS 273 small cell lung; SNB-78 CNS; XF 498 CNS.
Test in all cases: NCI tumour cell line growth inhibition, 48 h

Consider `Nc1ncnc2c1ccn2-c1cccc(NC(=O)c2ccc(N3CCOCC3)c(C(F)(F)F)c2)c1`, for which the GI50 in the assay on NCI/ADR-RES ovarian is 2.93 µM; in the assay with PC-3 prostate, 2.51 µM; in the assay with MDA-MB-231 breast, 2.47 µM; with SR leukemia it was 3.38 µM; with T-47D breast, 2.66 µM; in the assay with M14 melanoma, 3.33 µM. Also, the TGI in the assay with NCI/ADR-RES ovarian worked out at 23.4 µM; in the assay with PC-3 prostate it was 10.4 µM; in the assay on MDA-MB-231 breast, 10.9 µM; in the assay on SR leukemia, 20.7 µM; with T-47D breast it was 7.92 µM; with M14 melanoma it was 10.6 µM.

Consider `C#CCNC(=O)CC[C@@H](C)[C@H]1CC[C@H]2[C@@H]3CC[C@@H]4CC(=O)CC[C@]4(C)[C@H]3CC[C@]12C`, for which the GI50 in the assay on NCI/ADR-RES ovarian is 16.9 µM; in the assay with PC-3 prostate, 2.91 µM; in the assay on MDA-MB-231 breast, 16.5 µM; in the assay with SR leukemia, 3.17 µM; with BT-549 breast, 13.7 µM; in the assay with T-47D breast, 8 µM. Further, the GI50 in the assay with M14 melanoma was 14.6 µM. The TGI in the assay with NCI/ADR-RES ovarian amounted to 45.3 µM; in the assay on PC-3 prostate it was 24.2 µM; in the assay with MDA-MB-231 breast, 38.9 µM; with SR leukemia, 33.3 µM; in the assay on BT-549 breast, 36.7 µM; in the assay with T-47D breast it was 68.2 µM. The same compound returned a TGI with M14 melanoma of 37.2 µM.

With `COc1cccc(/C=N/[N-]C(N)=O)c1[O-].[Co+2].[OH3+].c1ccncc1`, the TGI in the assay with KM20L2 colon, in the assay with 786-0 renal and in the assay with M14 melanoma was over 100 µM in each case.

`O=C1OC(c2ccccc2Br)=N/C1=C/c1ccccc1`: the TGI in the assay with PC-3 prostate was over 100 µM; with MDA-MB-231 breast, 89.8 µM; with SR leukemia, over 100 µM; with T-47D breast it was over 100 µM; in the assay with MDA-N, 49.4 µM; in the assay with M14 melanoma, 41.1 µM.

In the case of `c1cc(CSc2ncnc3nc[nH]c23)ccn1`, the TGI in the assay with NCI/ADR-RES ovarian, with PC-3 prostate, with 786-0 renal, in the assay with MDA-MB-231 breast, in the assay on SR leukemia and in the assay on BT-549 breast was over 100 µM throughout. In addition, the TGI in the assay on T-47D breast, in the assay on MDA-N and in the assay on M14 melanoma was over 100 µM throughout.

As to `CC1OC(CO)(n2cnc3c(N)ncnc32)C(O)C1O` (stereo not given), the TGI in the assay with NCI/ADR-RES ovarian, with KM20L2 colon, in the assay with DMS 273 small cell lung, in the assay on SNB-78 CNS and in the assay with XF 498 CNS was over 100 µM in each case.

With `COc1cc(N(CCCl)CCCl)ccc1/C=N\NC(=O)c1cccnc1`, the GI50 is 24.9 µM with NCI/ADR-RES ovarian; 21.4 µM in the assay on PC-3 prostate; 33.8 µM with MDA-MB-231 breast; 13.7 µM in the assay on SR leukemia; 20.9 µM with BT-549 breast; 11.4 µM in the assay on T-47D breast. In the assay on M14 melanoma, the GI50 was 37.5 µM. In addition, the TGI with NCI/ADR-RES ovarian is over 100 µM; with PC-3 prostate it was over 100 µM; in the assay with MDA-MB-231 breast, over 100 µM; in the assay with SR leukemia, over 100 µM; with BT-549 breast it was 89.5 µM; with T-47D breast, over 100 µM. For the same compound, the TGI in the assay on M14 melanoma is over 100 µM.

As to `NC(CSCSCC(N)C(=O)O)C(=O)O` (stereo not given), the TGI in the assay with NCI/ADR-RES ovarian is over 104 µM; with KM20L2 colon it was over 225 µM; in the assay with DMS 273 small cell lung, over 225 µM; in the assay on SNB-78 CNS it was over 104 µM; with XF 498 CNS it was over 225 µM.

With `CCCCCCCCCCCCCCCCCCOc1ccccc1COP(=O)(O)OOCC[N+](C)(C)C`, the GI50 in the assay with NCI/ADR-RES ovarian is 6.59 µM; in the assay on PC-3 prostate, 0.824 µM; in the assay with MDA-MB-231 breast, 0.932 µM; in the assay on BT-549 breast, 1.32 µM; in the assay with T-47D breast, 1.79 µM. In addition, the TGI with NCI/ADR-RES ovarian was 20.6 µM; with PC-3 prostate, 1.8 µM; in the assay with MDA-MB-231 breast, 2.26 µM; with BT-549 breast, 4.26 µM; with T-47D breast, 11.2 µM.

As for `O=c1oc2ccccc2n1P(=O)(Oc1ccc(Cl)cc1)n1c(=O)oc2ccccc21`, the TGI with KM20L2 colon, with SR leukemia, in the assay with DMS 273 small cell lung and with SNB-78 CNS was over 100 µM in each case.

With `Cc1cc(N=Cc2c(CO)cnc(C)c2O)c(N=Cc2c(CO)cnc(C)c2O)cc1C`, the TGI in the assay with NCI/ADR-RES ovarian, with PC-3 prostate, in the assay with 786-0 renal, in the assay with MDA-MB-231 breast, in the assay on SR leukemia and with T-47D breast was over 100 µM throughout. Further, the TGI with MDA-N and with M14 melanoma was over 100 µM throughout. In addition, the GI50 in the assay on SR leukemia was 41.2 µM.

Turning to `CCOC(=O)c1cc([N+](=O)[O-])c(Sc2ncnc3nc[nH]c23)c([N+](=O)[O-])c1`, the TGI is 14.3 µM in the assay on NCI/ADR-RES ovarian; 27.9 µM in the assay with PC-3 prostate; 7.98 µM with 786-0 renal; 19.5 µM in the assay with MDA-MB-231 breast; 83.3 µM with SR leukemia; 20.1 µM in the assay on BT-549 breast. Moreover, the TGI in the assay with T-47D breast is 30 µM; in the assay with MDA-N, 15.1 µM; in the assay with M14 melanoma it was 15 µM.

For the compound `CON[N+]([O-])=NC(C)C`, the TGI in the assay with NCI/ADR-RES ovarian, in the assay with PC-3 prostate, in the assay with 786-0 renal, in the assay on MDA-MB-231 breast, with SR leukemia and with BT-549 breast was over 100 µM throughout. Also, the TGI with T-47D breast, in the assay with MDA-N and in the assay with M14 melanoma was over 100 µM each time.

As to `O=C1CCC2COc3ccc(O)c1c32` (stereo not given), the TGI in the assay on KM20L2 colon, in the assay on DMS 273 small cell lung, in the assay with SNB-78 CNS, with XF 498 CNS and in the assay with M14 melanoma was over 100 µM each time.

In the case of `CC(C)(C)CI`, the TGI was over 100 µM with KM20L2 colon; 76.7 µM with SR leukemia; 34.8 µM with DMS 273 small cell lung; 79.4 µM with SNB-78 CNS; 34.9 µM in the assay on XF 498 CNS; 71.3 µM in the assay on M14 melanoma.
